Assay results: ChEMBL document CHEMBL2021839, “Pyridine alkaloids from Senna multijuga as acetylcholinesterase inhibitors” (J Nat Prod, 2012)

Experiments:
[1] = molecular target: Acetylcholinesterase (Electrophorus electricus) (UniProt O42275); test: Inhibition of electric eel AChE using acetylthiocholine as substrate at 350 uM by Ellman's method
[2] = molecular target: Acetylcholinesterase (Electrophorus electricus) (UniProt O42275); test: Inhibition of electric eel AChE assessed as minimum concentration required to inhibit enzyme activity after 20 mins by TLC bioautographic assay

Chain of Acetylcholinesterase (Electrophorus electricus) (O42275 24-633 limits assumed): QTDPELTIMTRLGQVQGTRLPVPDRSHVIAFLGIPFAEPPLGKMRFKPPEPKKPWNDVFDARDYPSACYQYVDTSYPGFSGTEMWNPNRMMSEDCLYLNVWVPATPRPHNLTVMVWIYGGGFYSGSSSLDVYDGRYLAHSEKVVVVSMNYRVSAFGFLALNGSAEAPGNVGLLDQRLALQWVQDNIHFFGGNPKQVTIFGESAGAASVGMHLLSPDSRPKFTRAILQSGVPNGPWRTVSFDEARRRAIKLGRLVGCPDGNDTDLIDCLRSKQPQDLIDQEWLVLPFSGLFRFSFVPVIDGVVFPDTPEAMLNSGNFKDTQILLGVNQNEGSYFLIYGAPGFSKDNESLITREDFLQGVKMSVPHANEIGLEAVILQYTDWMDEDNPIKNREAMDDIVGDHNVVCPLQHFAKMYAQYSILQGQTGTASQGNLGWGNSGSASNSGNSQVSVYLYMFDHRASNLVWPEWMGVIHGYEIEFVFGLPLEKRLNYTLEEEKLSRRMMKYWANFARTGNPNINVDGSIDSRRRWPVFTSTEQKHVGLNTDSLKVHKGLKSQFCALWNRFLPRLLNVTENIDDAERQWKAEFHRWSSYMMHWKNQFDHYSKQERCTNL

SMILES | inhibition [1] | MIC [2]
CNC(=O)Oc1ccc2c(c1)[C@]1(C)CCN(C)[C@@H]1N2C | 94% | 0.1 µg
COC(=O)CCCc1ccc(O)c(C)n1 | 40% | 3 µg
CCCCC(O)CCCCCCCc1ccc(O)c(C)n1 (racemic) | 19% | 1.5 µg
CCCCCC(O)CCCCCCc1ccc(O)c(C)n1 (racemic) | 52% | 0.8 µg
Cc1nc(CCCCCCC(O)CCCCCO)ccc1O (racemic) | 51% | 1.5 µg
Cc1nc(CCCCCCCC(O)CCCCO)ccc1O (racemic) | 28% | 6 µg
